Data on 18 compounds can be found in publication PMC4608773, “Elisidepsin Interacts Directly with Glycosylceramides in the Plasma Membrane of Tumor Cells to Induce Necrotic Cell Death” (PLoS ONE, 2015).

Read-outs that look alike come from different tables or passages of the source.

The subject of test [1] is HCT-116-Irv cells (elisidepsin-resistant subline). The test is described as follows: cells. The note with it: for IC50: read-out: HCT-116-Irv (IC50), cell growth half-maximal inhibitory concentration; for RR (resistance ratio): fold change between IC50 values from HCT-116-Irv and HCT-116: negative values where HCT-116-Irv is the more sensitive line. As to the method:
B16 and GM95 cells were maintained in DMEM with the same supplements and conditions.
(§1) Cells were seeded in 96-well microtiter plates and maintained at 37°C and 5% CO2 in drug-free medium before treatment with vehicle alone or elisidepsin at the concentrations and times indicated in the text. For cell survival quantification, a colorimetric assay using SRB was used. Briefly, after treatment, cells were washed twice with phosphate buffered saline (PBS), fixed for 25 min in 1% glutaraldehyde solution, rinsed twice with PBS, stained in 0.4% SRB-1% acetic acid solution for 30 min, rinsed several times with 1% acetic acid solution, and air-dried. […] Results are expressed as percentage of control cell survival and represent the mean of at least three independent experiments. IC50, half-maximal inhibitory concentration, was used as a reference value.

For another test, the system named is HCT-116 cells. The test is described as follows: cells. As to the method: as §1
The test system of a further test is B16 cells. The test is described as follows: Cell viability assay (SRB colorimetric). The test is classed as cell-based, mouse. As to the method:
as §1

In test [2] the test system is GM95 cells (UGCG-deficient B16 mutant). The test is described as follows: Cell viability assay (SRB colorimetric). The test is classed as cell-based, mouse. The note with it: for IC50: read-out: GM95 (IC50), cell growth half-maximal inhibitory concentration; for RR: fold change between IC50 values from GM95 and B16: negative values where GM95 is the more sensitive line. Here is the method: as §1

Another test addresses Elisidepsin. The test is described as follows: FRET or BRET; two-photon FLIM-FRET, phasor analysis, on live HCT-116 cells in Tyrode-glucose buffer; mix of donor Irv-OG488 200 nM, acceptor Irv-A555 800 nM and elisidepsin 3 μM added to the cells; assemblies seen in the plasma membrane. A general note: BRET reads energy transfer from a luciferase to a nearby fluorophore.
The mark [3] stands for this setting: Homo sapiens, HCT-116, read-out: HCT-116 (IC50), cell growth half-maximal inhibitory concentration.
[4] abbreviates: SRB assay, mean of three different experiments, read-out: B16 (IC50), cell growth half-maximal inhibitory concentration.
Where [5] appears, read: SRB assay, mean of three different experiments.
Setting [6] is: SRB assay, 96-well, mean of three different experiments, exposure time not given.
[7] abbreviates: read-out: HCT-116 (IC50), cell growth half-maximal inhibitory concentration, SRB assay, 96-well, mean of three different experiments, exposure time not given.
Where [8] appears, read: Mus musculus, B16, read-out: B16 (IC50), cell growth half-maximal inhibitory concentration.

Regarding `O=c1[nH]cc(F)c(=O)[nH]1` [5-FU, 5-fluorouracil], the IC50 was determined as 11000 nM in test [1] (Homo sapiens) and 4000 nM with HCT-116 cells (setting [3]). In addition, in test [1], the “RR (resistance ratio): fold change between IC50 values from HCT-116-Irv and HCT-116” value came out at 2.8.

With `C[C@@H]1[C@H](O)[C@@H](C)/C=C/C=C/C=C/C=C/C=C/C=C/C=C/[C@H](O[C@@H]2O[C@H](C)[C@@H](O)[C@H](N)[C@@H]2O)C[C@@H]2O[C@](O)(C[C@@H](O)C[C@@H](O)[C@H](O)CC[C@@H](O)C[C@@H](O)CC(=O)O[C@H]1C)C[C@H](O)[C@H]2C(=O)O` [Amphotericin B], the IC50 in test [1] (Homo sapiens) stood at 6100 nM; in the test on HCT-116 cells (setting [3]) it was 5200 nM. Moreover, the “RR (resistance ratio): fold change between IC50 values from HCT-116-Irv and HCT-116” value in test [1] is 1.2.

Consider `N.N.[Cl][Pt][Cl]` [Cisplatin], for which the IC50 was found to be 18000 nM in the test with B16 cells (setting [4]), 9400 nM in test [2] (setting [5]), 3600 nM in test [1] (setting [6]) and 9800 nM in the test with HCT-116 cells (setting [7]). In addition, the “RR: fold change between IC50 values from GM95 and B16” value (shortened to “RR: fold change between IC50 values”) in test [2] was -2.0. Further, the “RR (resistance ratio): fold change between IC50 values from HCT-116-Irv and HCT-116” value in test [1] is -2.7.

`COc1cc2c(c(OC)c1OC)-c1ccc(OC)c(=O)cc1[C@@H](NC(C)=O)CC2` [Colchicine]: the IC50 turned out to be 2.8 nM in test [1] (Homo sapiens) and 3.9 nM with HCT-116 cells (setting [3]).

Turning to `CC(=O)O[C@@]12CO[C@@H]1C[C@H](O)[C@@]1(C)C(=O)[C@H](O)C3=C(C)[C@@H](OC(=O)[C@H](O)[C@@H](NC(=O)OC(C)(C)C)c4ccccc4)C[C@@](O)([C@@H](OC(=O)c4ccccc4)[C@H]21)C3(C)C` [Docetaxel], the IC50 in test [1] (Homo sapiens) is 1.8 nM; with HCT-116 cells (setting [3]), 2.9 nM.

Take `COc1cccc2c1C(=O)c1c(O)c3c(c(O)c1C2=O)C[C@@](O)(C(=O)CO)C[C@@H]3O[C@H]1C[C@H](N)[C@H](O)[C@H](C)O1` [Doxorubicin]: the IC50 turned out to be 180 nM in the test on B16 cells (setting [8]), 94 nM in test [2] (Mus musculus), 99 nM in test [1] (Homo sapiens) and 140 nM in the test with HCT-116 cells (setting [3]). Besides, the “RR: fold change between IC50 values” value in test [2] is -1.9.

Take `CCCCCCCCCCCCCCCCCCOCC(COP(=O)([O-])OCC[N+](C)(C)C)OC` (stereo not shown) [Edelfosine]: the IC50 (in test [1] (Homo sapiens); in the test on HCT-116 cells (setting [3])) was 29000 nM each time. In addition, in test [1], the “RR (resistance ratio): fold change between IC50 values from HCT-116-Irv and HCT-116” value came to 1.0.

`C/C(=C\c1csc(C)n1)[C@@H]1C[C@@H]2O[C@]2(C)CCC[C@H](C)[C@H](O)[C@@H](C)C(=O)C(C)(C)[C@@H](O)CC(=O)O1` [Epothilone B]: the IC50 in test [1] (Homo sapiens) was 3.9 nM; in the test with HCT-116 cells (setting [3]), 2.2 nM. The “RR (resistance ratio): fold change between IC50 values from HCT-116-Irv and HCT-116” value in test [1] is recorded as 1.8.

`C#Cc1cccc(Nc2ncnc3cc(OCCOC)c(OCCOC)cc23)c1` [Erlotinib]: the IC50 in test [1] (Homo sapiens) worked out at 16000 nM; in the test on HCT-116 cells (setting [3]), 32000 nM.

With `COc1cc([C@@H]2c3cc4c(cc3[C@@H](O[C@@H]3O[C@@H]5CO[C@@H](C)O[C@H]5[C@H](O)[C@H]3O)[C@H]3COC(=O)[C@H]23)OCO4)cc(OC)c1O` [Etoposide], the figures for the IC50 (in test [1] (Homo sapiens); in the test with HCT-116 cells (setting [3])) were 960 nM and 1200 nM, respectively.

Take `Nc1ccn([C@@H]2O[C@H](CO)[C@@H](O)C2(F)F)c(=O)n1` [Gemcitabine]: the IC50 in the test with B16 cells (Mus musculus, B16, SRB assay, mean of three different experiments, read-out: B16 (IC50), cell growth half-maximal inhibitory concentration) was 5.6 nM; in test [2] (Mus musculus, SRB assay, mean of three different experiments) it was 8.1 nM; in test [1] (Homo sapiens), 0.67 nM; in the test on HCT-116 cells (setting [3]), 0.63 nM. Further, the “RR: fold change between IC50 values” value in test [2] is 1.4. In test [1], the “RR (resistance ratio): fold change between IC50 values from HCT-116-Irv and HCT-116” value was 1.1.

`CN(Cc1cnc2nc(N)nc(N)c2n1)c1ccc(C(=O)N[C@@H](CCC(=O)O)C(=O)O)cc1` [Methotrexate]: the IC50 turned out to be 500 nM in the test on B16 cells (setting [8]), 370 nM in test [2] (Mus musculus), 77 nM in test [1] (Homo sapiens) and 37 nM with HCT-116 cells (setting [3]). For the same compound, in test [2], the “RR: fold change between IC50 values” value is -1.4. The “RR (resistance ratio): fold change between IC50 values from HCT-116-Irv and HCT-116” value in test [1] was 2.1.

For the compound `CO[C@@]12[C@H](COC(N)=O)C3=C(C(=O)C(C)=C(N)C3=O)N1C[C@@H]1N[C@@H]12` [Mitomycin C], the IC50 turned out to be 5700 nM in the test on B16 cells (setting [8]), 2500 nM in test [2] (Mus musculus), 300 nM in test [1] (Homo sapiens) and 330 nM with HCT-116 cells (setting [3]). For the same compound, the “RR: fold change between IC50 values” value in test [2] is -2.3.

For the compound `CC(=O)O[C@H]1C(=O)[C@@]2(C)[C@H]([C@H](OC(=O)c3ccccc3)[C@]3(O)C[C@H](OC(=O)[C@H](O)[C@@H](NC(=O)c4ccccc4)c4ccccc4)C(C)=C1C3(C)C)[C@]1(OC(C)=O)CO[C@@H]1C[C@@H]2O` [Paclitaxel], the IC50 was determined as 15 nM in the test on B16 cells (setting [8]), 34 nM in test [2] (Mus musculus), 8.3 nM in test [1] (Homo sapiens) and 6.9 nM in the test with HCT-116 cells (setting [3]). The “RR: fold change between IC50 values” value in test [2] is 2.2. Also, the “RR (resistance ratio): fold change between IC50 values from HCT-116-Irv and HCT-116” value in test [1] was found to be 1.2.

`CC[C@]1(O)C[C@@H]2CN(CCc3c([nH]c4ccccc34)[C@@](C(=O)OC)(c3cc4c(cc3OC)N(C)[C@H]3[C@@](O)(C(=O)OC)[C@H](OC(C)=O)[C@]5(CC)C=CCN6CC[C@]43[C@@H]65)C2)C1` [Vinblastine]: the IC50 in test [1] (Homo sapiens) amounted to 0.41 nM; in the test on HCT-116 cells (setting [3]), 0.32 nM. Also, the “RR (resistance ratio): fold change between IC50 values from HCT-116-Irv and HCT-116” value in test [1] is listed as 1.3.

Turning to `CCC1=C[C@@H]2CN(C1)Cc1c([nH]c3ccccc13)[C@@](C(=O)OC)(c1cc3c(cc1OC)N(C)[C@H]1[C@@](O)(C(=O)OC)[C@H](OC(C)=O)[C@]4(CC)C=CCN5CC[C@]31[C@@H]54)C2` [Vinorelbine], the IC50 in test [1] (Homo sapiens) stood at 190 nM; with HCT-116 cells (setting [3]) it was 160 nM. For the same compound, the “RR (resistance ratio): fold change between IC50 values from HCT-116-Irv and HCT-116” value in test [1] worked out at 1.1.

As for Elisidepsin (peptide), the FRET efficiency with Elisidepsin stood at 60%.

In the case of Syringomycin E, the IC50 amounted to 11000 nM in the test on B16 cells (setting [4]), 9000 nM in test [2] (setting [5]), 15000 nM in test [1] (setting [6]) and 20000 nM in the test with HCT-116 cells (setting [7]). In test [2], the “RR: fold change between IC50 values” value is on record as -1.3. For the same compound, the “RR (resistance ratio): fold change between IC50 values from HCT-116-Irv and HCT-116” value in test [1] was -1.4.
